The target in the test is tubulin beta chain (TUBB) (Homo sapiens, UniProt P07437). Briefly: competition with photoaffinity probe […] in HL-60 cells; pull-down LC-MS/MS and anti-TUBB immunoblot. The class given is cell-based. Background: A western blot detects proteins with antibodies after separation by electrophoresis.
Chain of tubulin beta chain (TUBB) (P07437 whole entry): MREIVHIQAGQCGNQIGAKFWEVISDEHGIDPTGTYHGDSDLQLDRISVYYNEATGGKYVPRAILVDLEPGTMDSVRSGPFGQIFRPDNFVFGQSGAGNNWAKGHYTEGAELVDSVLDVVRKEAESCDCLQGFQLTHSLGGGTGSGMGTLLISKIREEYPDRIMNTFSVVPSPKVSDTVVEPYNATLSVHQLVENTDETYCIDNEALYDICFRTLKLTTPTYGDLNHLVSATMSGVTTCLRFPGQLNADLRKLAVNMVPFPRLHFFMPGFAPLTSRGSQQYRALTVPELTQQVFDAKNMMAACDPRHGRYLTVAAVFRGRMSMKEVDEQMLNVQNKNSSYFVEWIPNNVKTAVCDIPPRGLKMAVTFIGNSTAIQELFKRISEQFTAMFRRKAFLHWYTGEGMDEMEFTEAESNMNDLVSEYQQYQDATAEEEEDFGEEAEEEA

Turning to `Cc1cc(C#N)ccc1-c1cc2c(cn1)ncn2-c1ccc2c(C)n[nH]c2c1` [compound 5, 3-Methyl-4-[1-(3-methyl-1H-indazol-6-yl)imidazo[4,5-c]pyridin-6-yl]benzonitrile], the “competition with photoaffinity probe 4 in HL-60 cells; pull-down LC-MS/MS and an” value is “The results clearly show concentration-dependent competition with OXS0082555 and paclitaxel confirming tubulin beta chain as a direct target”.
